Data reported in BindingDB's records for patent US20240018157 (Schrödinger, 2024).

target: T1, Mucosa-associated lymphoid tissue lymphoma translocation protein 1 (Homo sapiens, UniProt Q9UDY8); assay: MALT1 Protease Assay 2
T1 sequence (Q9UDY8 whole entry): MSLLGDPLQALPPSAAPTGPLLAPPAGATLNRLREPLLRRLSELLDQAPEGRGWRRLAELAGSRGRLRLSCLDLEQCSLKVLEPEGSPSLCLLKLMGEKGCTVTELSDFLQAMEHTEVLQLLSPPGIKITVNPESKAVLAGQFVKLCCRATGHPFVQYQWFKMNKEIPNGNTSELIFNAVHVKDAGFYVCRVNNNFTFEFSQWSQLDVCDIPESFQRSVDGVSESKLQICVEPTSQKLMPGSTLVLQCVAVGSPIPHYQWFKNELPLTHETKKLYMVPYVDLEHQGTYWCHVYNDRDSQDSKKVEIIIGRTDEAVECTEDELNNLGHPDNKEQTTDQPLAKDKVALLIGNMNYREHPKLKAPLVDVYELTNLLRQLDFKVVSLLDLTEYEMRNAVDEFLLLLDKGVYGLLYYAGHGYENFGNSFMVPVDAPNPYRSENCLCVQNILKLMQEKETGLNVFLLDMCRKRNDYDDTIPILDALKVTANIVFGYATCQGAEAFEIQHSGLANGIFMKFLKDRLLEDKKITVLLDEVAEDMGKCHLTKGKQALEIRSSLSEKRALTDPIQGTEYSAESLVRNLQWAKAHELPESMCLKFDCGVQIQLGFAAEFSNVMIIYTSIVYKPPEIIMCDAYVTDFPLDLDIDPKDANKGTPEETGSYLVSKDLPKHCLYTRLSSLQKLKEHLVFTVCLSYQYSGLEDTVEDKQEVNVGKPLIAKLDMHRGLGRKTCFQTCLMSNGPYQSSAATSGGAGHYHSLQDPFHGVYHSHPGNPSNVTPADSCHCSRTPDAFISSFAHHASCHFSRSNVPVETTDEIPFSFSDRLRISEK
Procedure: Test compounds were dissolved in 100% DMSO at stock of 10 mM, with final DMSO concentration 0.1%. Test compounds were pre-incubated with MALT1 protein for 2 h at room temperature.

Compound | IC50 [nM]
C[C@@]1(C(F)(F)F)CN(C(=O)Nc2cc(O[C@H]3CCNC3)nc(C(F)(F)F)c2)c2cnc3cc(Cl)nn3c21 [US20240018157, Example 75] | 10 to 100
C[C@H](O)c1cnn(-c2ncc(NC(=O)N3C[C@@](C)(C(F)(F)F)c4c3cnc3cc(Cl)nn43)cc2Cl)n1 [US20240018157, Example 76] | < 10
C[C@@H](O)c1cnn(-c2ncc(NC(=O)N3C[C@@](C)(C(F)(F)F)c4c3cnc3cc(Cl)nn43)cc2Cl)n1 [US20240018157, Example 77] | < 10
COCc1cnn(-c2ncc(NC(=O)N3C[C@@](C)(C(F)(F)F)c4c3cnc3cc(Cl)nn43)cc2Cl)n1 [US20240018157, Example 79] | < 10
C[C@@]1(C(F)(F)F)CN(C(=O)Nc2cc(N=S(C)(C)=O)nc(C(F)(F)F)c2)c2cnc3cc(Cl)nn3c21 [US20240018157, Example 83] | < 10
C[C@@]1(C(F)(F)F)CN(C(=O)Nc2cnc(N=S(C)(C)=O)c(Cl)c2)c2cnc3cc(Cl)nn3c21 [US20240018157, Example 85] | < 10
C[C@@]1(C(F)(F)F)CN(C(=O)Nc2cnc(-n3nccc3C#N)c(C#N)c2)c2cnc3cc(Cl)nn3c21 [US20240018157, Example 87] | < 10
C[C@@]1(C(F)(F)F)CN(C(=O)Nc2ccnc(C(F)F)c2)c2cnc3cc(F)nn3c21 [US20240018157, Example 88] | 10 to 100
C[C@]1(C(F)(F)F)CN(C(=O)Nc2ccnc(C(F)F)c2)c2cnc3cc(F)nn3c21 [US20240018157, Example 89] | 100 to 1000
C[C@@]1(C(F)(F)F)CN(C(=O)Nc2cnc(-n3nccn3)c(C#N)c2)c2cnc3cc(F)nn3c21 [US20240018157, Example 91] | < 10
COc1cnn(-c2ncc(NC(=O)N3C[C@@](C)(C(F)(F)F)c4c3cnc3cc(Cl)nn43)cc2Cl)n1 [US20240018157, Example 92] | < 10
CCOc1cc(NC(=O)N2C[C@@](C)(C(F)(F)F)c3c2cnc2cc(Cl)nn32)cn(C(F)F)c1=O [US20240018157, Example 93] | 10 to 100
C[C@@]1(C(F)(F)F)CN(C(=O)Nc2cnn(S(C)(=O)=O)c2)c2cnc3cc(Cl)nn3c21 [US20240018157, Example 94] | 100 to 1000
COC[C@@]1(C(F)(F)F)CN(C(=O)Nc2cnc(-n3nccn3)c(Cl)c2)c2cnc3cc(Cl)nn3c21 [US20240018157, Example 97] | < 10
COC[C@]1(C(F)(F)F)CN(C(=O)Nc2cnc(-n3nccn3)c(Cl)c2)c2cnc3cc(Cl)nn3c21 [US20240018157, Example 98] | 10 to 100
C[C@@]1(C(F)(F)F)CN(C(=O)Nc2cc(C(F)F)no2)c2cnc3cc(Cl)nn3c21 [US20240018157, Example 103] | 100 to 1000
C[C@@]1(C(F)(F)F)CN(C(=O)Nc2cnc(-n3nccn3)c(C(F)F)c2)c2cnc3cc(F)nn3c21 [US20240018157, Example 104] | < 10
C[C@]1(C(F)(F)F)CN(C(=O)Nc2cnc(-n3nccn3)c(C(F)F)c2)c2cnc3cc(F)nn3c21 [US20240018157, Example 105] | 100 to 1000
CN(C)C(=O)COc1ncc(NC(=O)N2C[C@@](C)(C(F)(F)F)c3c2cnc2cc(Cl)nn32)cc1C(F)F [US20240018157, Example 108] | > 1000
C[C@@]1(C(F)(F)F)CN(C(=O)Nc2cnnc(C(F)F)c2)c2cnc3cc(F)nn3c21 [US20240018157, Example 114] | > 1000
C[C@]1(C(F)(F)F)CN(C(=O)Nc2cnnc(C(F)F)c2)c2cnc3cc(F)nn3c21 [US20240018157, Example 115] | 10 to 100
C[S@+]([O-])c1ccc(NC(=O)N2C[C@@](C)(C(F)(F)F)c3c2cnc2cc(Cl)nn32)cc1C(F)F [US20240018157, Example 116] | < 10
C[S@@+]([O-])c1ccc(NC(=O)N2C[C@@](C)(C(F)(F)F)c3c2cnc2cc(Cl)nn32)cc1C(F)F [US20240018157, Example 117] | 100 to 1000
Cc1cn2ncc3c(c2n1)[C@](C)(C(F)(F)F)CN3C(=O)Nc1cnnc(C(F)F)c1 [US20240018157, Example 119] | 10 to 100
Cc1cn2ncc3c(c2n1)[C@@](C)(C(F)(F)F)CN3C(=O)Nc1cnnc(C(F)F)c1 [US20240018157, Example 120] | > 1000
CN(C)C(=O)c1ncc(NC(=O)N2C[C@@](C)(C(F)(F)F)c3c2cnc2cc(Cl)nn32)cc1C(F)F [US20240018157, Example 122] | < 10
Cc1cc(NC(=O)N2C[C@](C)(C(F)(F)F)c3c2cnc2cc(F)nn32)cnc1-n1nccn1 [US20240018157, Example 124] | > 1000

Compound | IC50 [nM]
Cc1cc(NC(=O)N2C[C@@](C)(C(F)(F)F)c3c2cnc2cc(F)nn32)cnc1-n1nccn1 [US20240018157, Example 125] | < 10
C[C@H](O)c1cnn(-c2ncc(NC(=O)N3C[C@@](C)(C(F)(F)F)c4c3cnc3cc(Cl)nn43)cc2C(F)F)n1 [US20240018157, Example 126] | < 10
C[C@@H](O)c1cnn(-c2ncc(NC(=O)N3C[C@@](C)(C(F)(F)F)c4c3cnc3cc(Cl)nn43)cc2C(F)F)n1 [US20240018157, Example 127] | < 10
C[C@@]1(C(F)F)CN(C(=O)Nc2cnc(-n3nccn3)c(Cl)c2)c2cnc3cc(Cl)nn3c21 [US20240018157, Example 128] | < 10
C[C@]1(C(F)F)CN(C(=O)Nc2cnc(-n3nccn3)c(Cl)c2)c2cnc3cc(Cl)nn3c21 [US20240018157, Example 129] | 10 to 100
CO[C@]1(C(F)(F)F)CN(C(=O)Nc2cnc(-n3nccn3)c(Cl)c2)c2cnc3cc(Cl)nn3c21 [US20240018157, Example 135] | 100 to 1000
CO[C@@]1(C(F)(F)F)CN(C(=O)Nc2cnc(-n3nccn3)c(Cl)c2)c2cnc3cc(Cl)nn3c21 [US20240018157, Example 136] | < 10
C[C@]1(C(F)(F)F)CN(C(=O)Nc2cnnc(C(F)F)c2)c2cnc3c(F)c(Cl)nn3c21 [US20240018157, Example 137] | > 1000
C[C@@]1(C(F)(F)F)CN(C(=O)Nc2cnnc(C(F)F)c2)c2cnc3c(F)c(Cl)nn3c21 [US20240018157, Example 138] | 10 to 100
C[C@]1(C(F)(F)F)CN(C(=O)Nc2cnc(-n3nccn3)c(Cl)c2)c2cnc3c(F)c(F)nn3c21 [US20240018157, Example 139] | > 1000
C[C@@]1(C(F)(F)F)CN(C(=O)Nc2cnc(-n3nccn3)c(Cl)c2)c2cnc3c(F)c(F)nn3c21 [US20240018157, Example 140] | < 10
C[C@]1(C(F)(F)F)CN(C(=O)Nc2cnnc(C(F)F)c2)c2cnc3c(F)c(F)nn3c21 [US20240018157, Example 141] | > 1000
C[C@@]1(C(F)(F)F)CN(C(=O)Nc2cnnc(C(F)F)c2)c2cnc3c(F)c(F)nn3c21 [US20240018157, Example 142] | 10 to 100
O=C(Nc1cnnc(C(F)F)c1)N1C[C@@](C2CC2)(C(F)(F)F)c2c1cnc1cc(Cl)nn21 [US20240018157, Example 144] | 10 to 100
O=C(Nc1cnnc(C(F)F)c1)N1C[C@](C2CC2)(C(F)(F)F)c2c1cnc1cc(Cl)nn21 [US20240018157, Example 145] | 100 to 1000
C[C@@]1(C(F)(F)F)CN(C(=O)Nc2cnc(-n3nccn3)c(Cl)c2)c2cnc3c(F)cnn3c21 [US20240018157, Example 146] | < 10
C[C@]1(C(F)(F)F)CN(C(=O)Nc2cnc(-n3nccn3)c(Cl)c2)c2cnc3c(F)cnn3c21 [US20240018157, Example 147] | > 1000
C[C@@]1(C(F)(F)F)CN(C(=O)Nc2cnc(C(=O)NC3CC3)c(C(F)F)c2)c2cnc3cc(Cl)nn3c21 [US20240018157, Example 150] | < 10
CN(C(=O)c1ncc(NC(=O)N2C[C@@](C)(C(F)(F)F)c3c2cnc2cc(Cl)nn32)cc1C(F)F)C1CC1 [US20240018157, Example 151] | < 10
Cc1cn2ncc3c(c2n1)[C@](C)(C(F)(F)F)CN3C(=O)Nc1cnc(-n2nccn2)c(Cl)c1 [US20240018157, Example 152] | < 10
Cc1cn2ncc3c(c2n1)[C@@](C)(C(F)(F)F)CN3C(=O)Nc1cnc(-n2nccn2)c(Cl)c1 [US20240018157, Example 153] | 10 to 100
Cc1nnc(C(F)F)cc1NC(=O)N1C[C@@](C)(C(F)(F)F)c2c1cnc1cc(Cl)nn21 [US20240018157, Example 154] | 100 to 1000
C[C@]1(C(F)(F)F)CN(C(=O)Nc2cnnc(C(F)F)c2)c2cnc3cc(CC(F)F)nn3c21 [US20240018157, Example 155] | 100 to 1000
C[C@@]1(C(F)(F)F)CN(C(=O)Nc2cnnc(C(F)F)c2)c2cnc3cc(CC(F)F)nn3c21 [US20240018157, Example 156] | > 1000
CCc1nn2c3c(cnc2c1N)N(C(=O)Nc1cnc(-n2nccn2)c(Cl)c1)C[C@]3(C)C(F)(F)F [US20240018157, Example 157] | 100 to 1000
CCc1nn2c3c(cnc2c1N)N(C(=O)Nc1cnc(-n2nccn2)c(Cl)c1)C[C@@]3(C)C(F)(F)F [US20240018157, Example 158] | > 1000
